Experimental data reported in patent US9770195B2, “Automated scratch detection system and signal processing algorithm for the study of pruritus in animals” (The Regents of the University of California, priority 2012, dated 2017).
Entries after “also recorded” stand apart in the source; their conditions may differ. Where two headings read alike, the source gives them in different places.

Assays:
Holtzman rats = assay: SQ 48/80-evoked homolateral scratching in the rat (PMD, Example 2); format: in vivo; details: diphenhydramine 1 mg/kg IP with SQ 48/80
Excerpt: Data acquisition is then initiated.
The PMD detects the movement of a non-ferrous metal band placed around one hind paw of the rodent (for the mouse the band weight=0.1 g while for the rat the band weight=0.5 g). There are two distinct bands one for the rat and one for the mouse (see the band in Yaksh et al., 2001). The testing apparatus consists of cylindrical chambers (mouse: 8.5 cm diameter/22.5 cm tall; rat: 15 cm diameter/30 cm tall). Under each cylinder is a pair of circular concentric electromagnetic coils, which serve respectively as antennas for transmission and reception. Outer coil diameters for the mouse and rat are 12 cm and 20 cm, respectively. The transmitter coil assembly is constructed to emit a 5-8 mW, 6-8 kHz, sinusoidal electromagnetic field (Blue Max 800 Precision scan search coil White's Electronics, Inc., OR). The detection principal is that Eddy currents created by the movements of the ferrous and nonferrous metals perturb the EM field. Such perturbations produce an output waveform and are subsequently detected (Yaksh et al., 2001).

C57Bl/6 mice [1] = details: mouse; for effect on chloroquine (1 mg/mL) evoked scratching: diphenhydramine 1 mg/kg IP
C57Bl/6 mice [2] = assay: Pruritogen-evoked hind paw scratching counted by the paw motion detector (PMD) in mice; format: in vivo; details: mouse; for scratching behavior evoked by the pruritogen: injection to dorsolateral neck, ipsilateral paw, 60 min; for dose response of scratching: histamine 0.111-11.1 g/mL, chloroquine 0.1-2 mg/mL, 48/80 0.125-0.5 mg/mL
Excerpt: Data acquisition is then initiated. […] The PMD detects the movement of a non-ferrous metal band placed around one hind paw of the rodent (for the mouse the band weight=0.1 g while for the rat the band weight=0.5 g). There are two distinct bands one for the rat and one for the mouse (see the band in Yaksh et al., 2001). The testing apparatus consists of cylindrical chambers (mouse: 8.5 cm diameter/22.5 cm tall; rat: 15 cm diameter/30 cm tall). Under each cylinder is a pair of circular concentric electromagnetic coils, which serve respectively as antennas for transmission and reception. […] The transmitter coil assembly is constructed to emit a 5-8 mW, 6-8 kHz, sinusoidal electromagnetic field (Blue Max 800 Precision scan search coil White's Electronics, Inc., OR). The detection principal is that Eddy currents created by the movements of the ferrous and nonferrous metals perturb the EM field. Such perturbations produce an output waveform and are subsequently detected (Yaksh et al., 2001). The analog signal from the sensing coil assembly is fed into a standard National Instruments based signal acquisition A-D converter system ([…] or PCI-MI0-16Xe-10 National Instruments Corp.) driven into a standard LabView based software (Lab view v.5.1 National Instruments Corporation, Austin, Tex.). The signal is filtered, amplified, and digitized (sampling rate of 1000 Hz, 12-bit resolution). This signal (conditioned signal in FIG. 2) is then entered and passed through a two component-triggering algorithm configured in the Lab view program. In the first phase, the processed signal is sent through an algorithm to establish a scratch movement trigger. In this phase, the processed signal is subjected to a “zero-crossing interval-peak height” analysis based on the signal amplitude in a sliding time window (see Yaksh et al., 2001). The range of voltages (1-0.01 V) over a moving 128-ms interval is configured to produce a continuous output waveform. […] The signal is then smoothed by using a non-weighted moving average filter. The smoothed range waveform is examined in real time by a peak-detection algorithm set to pick out spikes of >500 ms and amplitudes of >0.3 V. Each peak provided a trigger signal, which is represented by a red line on the automated system's display, see FIG. 3. The signal is then processed through a second level algorithm to define bursting. A high frequency scratching burst, which we will now call a microburst, is defined as multiple trigger signals occurring within a specified moving window time frame (e.g. 2 trigger signals within a 1.15 s time frame) without double counting trigger signals. […] Paw movement events meeting the criteria of a scratch microburst are captured and summed at 1-min increments by default (and can be summed from 1 s to 60 min increments). Summed data are stored in Microsoft Excel compatible spreadsheets.

## CN(C)CCOC(c1ccccc1)c1ccccc1 [diphenhydramine, Diphenhydramine]
Holtzman rats
  effect on 48/80-evoked scratching: significant reduction in the observed magnitude of scratching
C57Bl/6 mice [1]; diphenhydramine 0.1 mg/kg IP, 30 min pretreatment, SQ 48/80 0.5 mg/mL
  effect on scratching produced by 48/80: complete reversal of scratching
C57Bl/6 mice [1]; 30 min pretreatment
  effect on chloroquine (1 mg/mL) evoked scratching: lower mean microburst count than those treated with chloroquine alone, but this was not statistically significant
C57Bl/6 mice [1]; 30 min pretreatment, listed as Diphenhydramine
  effect on chloroquine (1 mg/mL) evoked scratching: no statistically significant effect
C57Bl/6 mice [1]; diphenhydramine, dose not stated
  effect on SQ histamine-evoked scratching: reversed
C57Bl/6 mice [1]; higher doses of diphenhydramine (0.3, 1 mg/kg IP)
  effect on scratching produced by 48/80: suppression of behavior as compared to saline treated animals
C57Bl/6 mice [1]; increasing doses of IP diphenhydramine
  effect on 48/80-evoked scratching, across doses: attenuated in an equally dose dependent fashion; also recorded: reversed

## CCN(CC)CC(=O)Nc1c(C)cccc1C [lidocaine]
C57Bl/6 mice [1]; SQ lidocaine 2.5% injected into the site 5 min prior to histamine
  effect on histamine-evoked scratching: blocked the scratching behavior

## Cl.Cl.NCCc1c[nH]cn1 [histamine, Histamine dihydrochloride]
C57Bl/6 mice [2]
  scratching behavior evoked by the pruritogen: vigorous scratching
C57Bl/6 mice [2]; dihydrochloride
  dose response of scratching: robust dose dependent scratching

## CCN(CC)CCCC(C)Nc1ccnc2cc(Cl)ccc12 (stereo not drawn) [chloroquine]
C57Bl/6 mice [2]; 1 hour, SQ 48/80 0.5 mg/mL vs chloroquine 1 mg/mL, N=5, p<0.001
  cumulative macroburst counts, 48/80 vs chloroquine: significantly different
C57Bl/6 mice [2]
  scratching behavior evoked by the pruritogen: vigorous scratching; also recorded: significant scratching incidence
  dose response of scratching: inverse u shape dose response curve
C57Bl/6 mice [2]; over 1 hour after SQ 48/80 0.5 mg/mL or chloroquine 1 mg/mL, N=5, FFT transformed
  average macrobursts: 8.4
C57Bl/6 mice [2]; listed as Chloroquine
  dose response of scratching: inverse U shaped dose response curve; also recorded: inverse u-shaped dose response curve
